Test: refractive index (other wavelength) (dimensionless); xn = mol fraction of the nth substance listed
Details: Liquid, Wavelength=632.8 nm, ellipsometry

[Cl-].[Cl-].[Cl-].[Gd+3] [gadolinium(III) chloride] + [Cl-].[K+]
refractive index, 100 kPa
Details | 923 K | 973 K | 1023 K | 1073 K | 1123 K | 1173 K
x1 = 0.25 | – | – | 1.48 | 1.473 | 1.465 | 1.457
x1 = 0.5 | 1.557 | 1.551 | 1.546 | 1.54 | 1.534 | 1.529
x1 = 0.75 | 1.665 | 1.65 | 1.635 | 1.62 | 1.606 | 1.591
x1 = 1 | 1.7 | 1.685 | 1.68 | 1.675 | 1.664 | 1.662

[Cl][Ce]([Cl])[Cl] [cerium trichloride] + [Cl-].[Na+]
refractive index, 101 kPa
Details | 1073 K | 1103 K | 1123 K | 1133 K | 1153 K | 1173 K | 1193 K | 1213 K | 1223 K | 1233 K
x1 = 0.25 | 1.515 | 1.51 | 1.507 | – | 1.502 | 1.5 | – | – | – | –
x1 = 0.5 | 1.595 | 1.59 | 1.587 | – | 1.582 | 1.58 | 1.578 | – | – | –
x1 = 0.75 | 1.656 | 1.651 | 1.647 | – | 1.642 | 1.639 | 1.636 | – | 1.631 | –
x1 = 1 | – | 1.697 | – | 1.691 | 1.688 | 1.685 | 1.681 | 1.678 | – | 1.674

[Cl][Ce]([Cl])[Cl] [cerium trichloride] + [Cl-].[K+]
refractive index, 100 kPa
Details | 1073 K | 1103 K | 1123 K | 1133 K | 1153 K | 1173 K | 1193 K | 1203 K | 1213 K | 1233 K
x1 = 0.25 | 1.478 | 1.475 | 1.471 | – | 1.466 | 1.463 | 1.46 | – | – | –
x1 = 0.5 | 1.56 | 1.554 | 1.552 | – | 1.548 | 1.544 | – | 1.54 | – | –
x1 = 0.75 | 1.591 | 1.586 | 1.583 | – | 1.582 | 1.575 | – | – | – | –
x1 = 1 | – | 1.697 | – | 1.691 | 1.688 | 1.685 | 1.681 | – | 1.678 | 1.674

[Cl-].[Na+] [sodium chloride] + [Cl][Sm]([Cl])[Cl]
100 kPa, x2 = 0
Details | refractive index
1083 K | 1.41
1093 K | 1.408
1103 K | 1.407
1113 K | 1.406
1123 K | 1.405
1133 K | 1.404
1153 K | 1.402
1173 K | 1.399

[Cl-].[K+] [potassium chloride] + [Cl-].[Cl-].[Cl-].[Gd+3]
100 kPa, x2 = 0
Details | refractive index
1073 K | 1.393
1093 K | 1.39
1103 K | 1.388
1113 K | 1.386
1123 K | 1.385
1133 K | 1.383
1153 K | 1.38
1173 K | 1.377
1193 K | 1.374

[Cl][Sm]([Cl])[Cl] [samarium chloride] + [Cl-].[Na+]
refractive index, 100 kPa
Details | 973 K | 1003 K | 1023 K | 1073 K | 1103 K | 1123 K | 1153 K | 1173 K | 1193 K
x1 = 0.25 | 1.536 | 1.53 | 1.526 | 1.518 | 1.513 | 1.51 | – | 1.503 | 1.499
x1 = 0.5 | 1.613 | 1.609 | 1.602 | 1.583 | 1.582 | 1.58 | – | 1.569 | –
x1 = 0.75 | 1.672 | 1.665 | 1.662 | 1.653 | 1.648 | 1.64 | – | 1.629 | –
x1 = 1 | 1.712 | 1.705 | 1.701 | 1.691 | 1.684 | 1.68 | 1.674 | 1.672 | –

[Cl-].[K+] [potassium chloride] + [Cl][Ce]([Cl])[Cl]
100 kPa, x2 = 0
Details | refractive index
1073 K | 1.393
1093 K | 1.39
1103 K | 1.388
1113 K | 1.386
1123 K | 1.385
1133 K | 1.383
1153 K | 1.38
1173 K | 1.377
1193 K | 1.374

[Cl-].[Na+] [sodium chloride] + [Cl-].[Cl-].[Cl-].[Gd+3]
100 kPa, x2 = 0
Details | refractive index
1083 K | 1.41
1093 K | 1.408
1103 K | 1.407
1113 K | 1.406
1123 K | 1.405
1133 K | 1.404
1153 K | 1.402
1173 K | 1.399

[Cl-].[K+] [potassium chloride] + [Cl-].[Na+]
101 kPa, x2 = 0.5
Details | refractive index
953 K | 1.42
973 K | 1.417
993 K | 1.414
1013 K | 1.411
1033 K | 1.408
1053 K | 1.405
1073 K | 1.402
1093 K | 1.399
1103 K | 1.397
1113 K | 1.396
1123 K | 1.394
1133 K | 1.393
1153 K | 1.39
1173 K | 1.387

[Cl-].[Na+] [sodium chloride] + [Cl][Ce]([Cl])[Cl]
101 kPa, x2 = 0
Details | refractive index
1083 K | 1.41
1093 K | 1.408
1103 K | 1.407
1113 K | 1.406
1123 K | 1.405
1133 K | 1.404
1153 K | 1.402
1173 K | 1.399

— the NIST ThermoML archive (doi:10.1021/acs.jced.6b00362)
